From ChEMBL document CHEMBL1201862, “PubChem BioAssay data set” (2004)
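Following 48 hours of exposure in 96-well plates, responses at five concentrations were used to interpolate endpoints linearly. Abbreviation: GI50, concentration required for 50% inhibition of growth.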 Calls of active or inactive are those of the source. Cut-off read from the data, not from the text of the source: active = GI50 up to about 1.1 µM and inactive = higher.

Tests used:
Test in all cases: NCI tumour cell line growth inhibition, 48 h
[1] = test system: OVCAR-4
[2] = test system: SF-539
[3] = test system: MOLT-4
[4] = test system: 786-0
[5] = test system: HOP-92
[6] = test system: SF-295
[7] = test system: HL-60
[8] = test system: SK-OV-3
[9] = test system: SK-MEL-5
[10] = test system: KM-20L2
[11] = test system: M14
[12] = test system: SK-MEL-28
[13] = test system: RXF 631
[14] = test system: CAKI-1
[15] = test system: SR
[16] = test system: SN12C
[17] = test system: HOP-62
[18] = test system: OVCAR-3
[19] = test system: ACHN
[20] = test system: UACC-62
[21] = test system: LOX IMVI
[22] = test system: UACC-257
[23] = test system: DLD-1
[24] = test system: LXFL 529
[25] = test system: K562
[26] = test system: NCI-H460
[27] = test system: SF-268
[28] = test system: SW-620
[29] = test system: DMS-114
[30] = test system: OVCAR-8
[31] = test system: HCT-116
[32] = test system: NCI-H522
[33] = test system: DMS-273
[34] = test system: SNB-75
[35] = test system: SNB-19
[36] = test system: Malme-3M
[37] = test system: HOP-18
[38] = test system: A549
[39] = test system: TK-10
[40] = test system: HCT-15
[41] = test system: NCI-H23
[42] = test system: SK-MEL-2
[43] = test system: U-251
[44] = test system: RXF 393
[45] = test system: UO-31
[46] = test system: HCC 2998
[47] = test system: EKVX
[48] = test system: SNB-78
[49] = test system: M19-MEL
[50] = test system: COLO 205
[51] = test system: HT-29
[52] = test system: CCRF-CEM
[53] = test system: OVCAR-5
[54] = test system: IGROV-1
[55] = test system: NCI-H226
[56] = test system: A498
[57] = test system: RPMI-8226
[58] = test system: KM12

SMILES: C=C(Br)N(CC)CC
- GI50 [1]: > 100 µM (inactive)
- GI50 [2]: > 100 µM (inactive)
- GI50 [3]: > 100 µM (inactive)
- GI50 [4]: > 100 µM (inactive)
- GI50 [5]: > 100 µM (inactive)
- GI50 [6]: > 100 µM (inactive)
- GI50 [7]: > 100 µM (inactive)
- GI50 [8]: > 100 µM (inactive)
- GI50 [9]: > 100 µM (inactive)
- GI50 [10]: > 100 µM (inactive)
- GI50 [11]: > 100 µM (inactive)
- GI50 [12]: > 100 µM (inactive)
- GI50 [13]: > 100 µM (inactive)
- GI50 [14]: > 100 µM (inactive)
- GI50 [15]: > 100 µM (inactive)
- GI50 [16]: > 100 µM (inactive)
- GI50 [17]: > 100 µM (inactive)
- GI50 [18]: > 100 µM (inactive)
- GI50 [19]: > 100 µM (inactive)
- GI50 [20]: > 100 µM (inactive)
- GI50 [21]: > 100 µM (inactive)
- GI50 [22]: > 100 µM (inactive)
- GI50 [23]: > 100 µM (inactive)
- GI50 [24]: > 100 µM (inactive)
- GI50 [25]: > 100 µM (inactive)
- GI50 [26]: > 100 µM (inactive)
- GI50 [27]: > 100 µM (inactive)
- GI50 [28]: > 100 µM (inactive)
- GI50 [29]: > 100 µM (inactive)
- GI50 [30]: > 100 µM (inactive)
- GI50 [31]: > 100 µM (inactive)
- GI50 [32]: > 100 µM (inactive)
- GI50 [33]: > 100 µM (inactive)
- GI50 [34]: > 100 µM (inactive)
- GI50 [35]: > 100 µM (inactive)
- GI50 [36]: > 100 µM (inactive)
- GI50 [37]: > 100 µM (inactive)
- GI50 [38]: > 100 µM (inactive)
- GI50 [39]: > 100 µM (inactive)
- GI50 [40]: > 100 µM
- GI50 [41]: > 100 µM (inactive)
- GI50 [42]: > 100 µM (inactive)
- GI50 [43]: > 100 µM (inactive)
- GI50 [44]: > 100 µM (inactive)
- GI50 [45]: > 100 µM (inactive)
- GI50 [46]: > 100 µM (inactive)
- GI50 [47]: > 100 µM (inactive)
- GI50 [48]: > 100 µM (inactive)
- GI50 [49]: > 100 µM (inactive)
- GI50 [50]: > 100 µM (inactive)
- GI50 [51]: > 100 µM (inactive)
- GI50 [52]: > 100 µM (inactive)
- GI50 [53]: > 100 µM (inactive)
- GI50 [54]: > 100 µM (inactive)
- GI50 [55]: > 100 µM (inactive)
- GI50 [56]: > 100 µM (inactive)
- GI50 [57]: > 100 µM (inactive)
- GI50 [58]: > 100 µM (inactive)

SMILES: N#CCC(=O)N/N=C1\C(=O)N(c2ccc(Cl)cc2)C(=O)C(=O)C1c1nc2ccccc2o1 (configuration not stated)
- GI50 [1]: > 100 µM (inactive)
- GI50 [2]: > 100 µM (inactive)
- GI50 [3]: > 100 µM (inactive)
- GI50 [4]: > 100 µM (inactive)
- GI50 [5]: 91.8 µM (inactive)
- GI50 [6]: > 100 µM (inactive)
- GI50 [7]: > 100 µM (inactive)
- GI50 [8]: > 100 µM (inactive)
- GI50 [9]: > 100 µM (inactive)
- GI50 [10]: > 100 µM (inactive)
- GI50 [11]: > 100 µM (inactive)
- GI50 [12]: > 100 µM (inactive)
- GI50 [13]: > 100 µM (inactive)
- GI50 [14]: > 100 µM (inactive)
- GI50 [15]: > 100 µM (inactive)
- GI50 [16]: > 100 µM (inactive)
- GI50 [17]: > 100 µM (inactive)
- GI50 [18]: > 100 µM (inactive)
- GI50 [19]: > 100 µM (inactive)
- GI50 [20]: > 100 µM (inactive)
- GI50 [22]: > 100 µM (inactive)
- GI50 [23]: > 100 µM (inactive)
- GI50 [24]: > 100 µM (inactive)
- GI50 [26]: > 100 µM (inactive)
- GI50 [27]: > 100 µM (inactive)
- GI50 [28]: > 100 µM (inactive)
- GI50 [29]: > 100 µM (inactive)
- GI50 [30]: > 100 µM (inactive)
- GI50 [31]: > 100 µM (inactive)
- GI50 [32]: > 100 µM (inactive)
- GI50 [33]: > 100 µM (inactive)
- GI50 [34]: > 100 µM (inactive)
- GI50 [35]: > 100 µM (inactive)
- GI50 [36]: > 100 µM (inactive)
- GI50 [37]: > 100 µM (inactive)
- GI50 [38]: > 100 µM (inactive)
- GI50 [39]: > 100 µM (inactive)
- GI50 [40]: > 100 µM
- GI50 [41]: > 100 µM (inactive)
- GI50 [42]: > 100 µM (inactive)
- GI50 [43]: > 100 µM (inactive)
- GI50 [44]: > 100 µM (inactive)
- GI50 [45]: > 100 µM (inactive)
- GI50 [46]: > 100 µM (inactive)
- GI50 [47]: > 100 µM (inactive)
- GI50 [48]: > 100 µM (inactive)
- GI50 [49]: > 100 µM (inactive)
- GI50 [50]: > 100 µM (inactive)
- GI50 [51]: > 100 µM (inactive)
- GI50 [52]: > 100 µM (inactive)
- GI50 [54]: > 100 µM (inactive)
- GI50 [55]: > 100 µM (inactive)
- GI50 [56]: > 100 µM (inactive)
- GI50 [58]: > 100 µM (inactive)
